Assay results from the supplement of paper PMC11208160.
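Further: IS621 recombinase and bridge RNA in Escherichia coli cells.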

Assay: recombinant barcode read abundance after kanamycin selection (control-corrected) (log10(CPM+1)); higher = more efficient recombination; sequences stand for … in AGTGCAGAGAAAATCGGCCAGTTTTCTCTGCCTGCAGTCCGCATGCCGT…AGATTTATGCAGCGGACTGCCTTTCTCCCAAAGTGATAAACCGGACAGTATCATGGACCGGTTTTCCCGGTAATCCGTATTTGCAAGGTTGGTTTCACT; site = the 11-nt target
Procedure, shortened: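 Values are log10(CPM+1) from a pooled E. coli screen of targets paired with IS621 bridge RNA target-binding loops. Recombination efficiency here means counts per million of recombinant-junction barcodes, averaged and control-corrected. Plates were chloramphenicol/ampicillin LB agar for the control and chloramphenicol/ampicillin/kanamycin with 0.1 mM IPTG, two replicates each.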
In the case of “CGATTAGCTTGGGTTCTAACCTGTTGCCG (site ATTCACACTAC)”, the “recombinant barcode read abundance (log10)” value is reported as 0.0236. In the case of “CGATTAGCTTGGGTTCTAACCTGTTGCCG (site CGATTAGCTCG)”, the “recombinant barcode read abundance (log10)” value is reported as 0.536. In the case of “CGATTATCTTGGGTTCTAACCTGTTGCCT (site CGATTAACTAG)”, the “recombinant barcode read abundance (log10)” value is reported as 0.25. For “CGATTATCTTGGGTTCTAACCTGTTGCCT (site CGATTACCTAG)”, the “recombinant barcode read abundance (log10)” value was 0.162. With “CGATTATCTTGGGTTCTAACCTGTTGCCT (site CGATTAGCTAG)” the “recombinant barcode read abundance (log10)” value was 0.0752. With “CGATTATCTTGGGTTCTAACCTGTTGCCT (site CGATTATCTAG)” the “recombinant barcode read abundance (log10)” value was 0.0534. In the case of “CGCAAGCCTTGGGTTCTAACCTGTTGCAT (site CGCAAGCCTAT)”, the “recombinant barcode read abundance (log10)” value is reported as 0.0608. For “CGCAAGCCTTGGGTTCTAACCTGTTGCAT (site CGTAAGCCTAT)”, the “recombinant barcode read abundance (log10)” value was 0. In the case of “CGCAGCCCTTGGGTTCTAACCTGTTGCAT (site CGCAGCCCTAT)”, the “recombinant barcode read abundance (log10)” value is reported as 0.462. In the case of “CGCAGCCCTTGGGTTCTAACCTGTTGCAT (site CGGAGCCCTAT)”, the “recombinant barcode read abundance (log10)” value is reported as 0.0663. For “CGCAGCTCTTGGGTTCTAACCTGTTGCCT (site CGAAGCTCTAG)”, the “recombinant barcode read abundance (log10)” value was 0.0165. With “CGCAGCTCTTGGGTTCTAACCTGTTGCCT (site CGCAGCTCTAG)” the “recombinant barcode read abundance (log10)” value was 0.0301. With “CGCAGCTCTTGGGTTCTAACCTGTTGCCT (site CGGAGCTCTAG)” the “recombinant barcode read abundance (log10)” value was 0.0445. In the case of “CGCAGCTCTTGGGTTCTAACCTGTTGCCT (site CGTAGCTCTAG)”, the “recombinant barcode read abundance (log10)” value is reported as 0.511. With “CGCCCTCCTTGGGTTCTAACCTGTTGCAT (site CGCCATCCTAT)” the “recombinant barcode read abundance (log10)” value was 0.0837. With “CGCCCTCCTTGGGTTCTAACCTGTTGCAT (site CGCCCTCCTAT)” the “recombinant barcode read abundance (log10)” value was 0.362. With “CGCCCTCCTTGGGTTCTAACCTGTTGCAT (site CGCCGTCCTAT)” the “recombinant barcode read abundance (log10)” value was 0.117. With “CGCCCTCCTTGGGTTCTAACCTGTTGCAT (site CGCCTTCCTAT)” the “recombinant barcode read abundance (log10)” value was 0.0322. With “CGCCGCCCTTGGGTTCTAACCTGTTGCCT (site AGCCGCCCTAT)” the “recombinant barcode read abundance (log10)” value was 0.447. In the case of “CGCCGCCCTTGGGTTCTAACCTGTTGCCT (site CGCCGCCCTAG)”, the “recombinant barcode read abundance (log10)” value is reported as 0.18. In the case of “CGCCTCTCTTGGGTTCTAACCTGTTGCCT (site CGCCTCACTAG)”, the “recombinant barcode read abundance (log10)” value is reported as 0.0921. For “CGCCTCTCTTGGGTTCTAACCTGTTGCCT (site CGCCTCCCTAG)”, the “recombinant barcode read abundance (log10)” value was 0.211. In the case of “CGCCTCTCTTGGGTTCTAACCTGTTGCCT (site CGCCTCGCTAG)”, the “recombinant barcode read abundance (log10)” value is reported as 0.307. In the case of “CGCCTCTCTTGGGTTCTAACCTGTTGCCT (site CGCCTCTCTAG)”, the “recombinant barcode read abundance (log10)” value is reported as 0.0707. In the case of “CGCGAATCTTGGGTTCTAACCTGTTGCTT (site CGCGAATCTAA)”, the “recombinant barcode read abundance (log10)” value is reported as 0.0373. With “CGCGAATCTTGGGTTCTAACCTGTTGCTT (site CGCGGGTCTAA)” the “recombinant barcode read abundance (log10)” value was 0.168. In the case of “CGCGCGGCTTGGGTTCTAACCTGTTGCCT (site CGCGCGGCTAG)”, the “recombinant barcode read abundance (log10)” value is reported as 0.251. In the case of “CGCGCGGCTTGGGTTCTAACCTGTTGCCT (site CGCGGGGCTAG)”, the “recombinant barcode read abundance (log10)” value is reported as 0.266. In the case of “CGCGGTTCTTGGGTTCTAACCTGTTGCCT (site CGAGGTTCTAG)”, the “recombinant barcode read abundance (log10)” value is reported as 0.339. For “CGCGGTTCTTGGGTTCTAACCTGTTGCCT (site CGCGGTTCTAG)”, the “recombinant barcode read abundance (log10)” value was 0.0855. For “CGCGTTGCTTGGGTTCTAACCTGTTGCCT (site AAGCCCACTCC)”, the “recombinant barcode read abundance (log10)” value was 0.0136. For “CGCGTTGCTTGGGTTCTAACCTGTTGCCT (site CGCGTTGCTAG)”, the “recombinant barcode read abundance (log10)” value was 0.48. In the case of “CGCTCGTCTTGGGTTCTAACCTGTTGCCT (site CGCTAGTCTAG)”, the “recombinant barcode read abundance (log10)” value is reported as 0.0163. With “CGCTCGTCTTGGGTTCTAACCTGTTGCCT (site CGCTCGTCTAG)” the “recombinant barcode read abundance (log10)” value was 0.00559. In the case of “CGCTCGTCTTGGGTTCTAACCTGTTGCCT (site CGCTGGTCTAG)”, the “recombinant barcode read abundance (log10)” value is reported as 0.0376. With “CGCTCGTCTTGGGTTCTAACCTGTTGCCT (site CGCTTGTCTAG)” the “recombinant barcode read abundance (log10)” value was 0.163. With “CGCTGTCCTTGGGTTCTAACCTGTTGCTT (site CGCTGACCTAA)” the “recombinant barcode read abundance (log10)” value was 0.156. For “CGCTGTCCTTGGGTTCTAACCTGTTGCTT (site CGCTGCCCTAA)”, the “recombinant barcode read abundance (log10)” value was 0.148. For “CGCTGTCCTTGGGTTCTAACCTGTTGCTT (site CGCTGGCCTAA)”, the “recombinant barcode read abundance (log10)” value was 0.348. For “CGCTGTCCTTGGGTTCTAACCTGTTGCTT (site CGCTGTCCTAA)”, the “recombinant barcode read abundance (log10)” value was 0.176. In the case of “CGGAACCCTTGGGTTCTAACCTGTTGCCG (site CGGAACCCTCG)”, the “recombinant barcode read abundance (log10)” value is reported as 1.22. In the case of “CGGAACCCTTGGGTTCTAACCTGTTGCCG (site CGGAGCCCTTG)”, the “recombinant barcode read abundance (log10)” value is reported as 0.11. With “CGGAAGACTTGGGTTCTAACCTGTTGCCT (site CGGAAGACTAG)” the “recombinant barcode read abundance (log10)” value was 1.98. In the case of “CGGAAGACTTGGGTTCTAACCTGTTGCCT (site CGGAAGCCTAG)”, the “recombinant barcode read abundance (log10)” value is reported as 0.121. With “CGGAAGACTTGGGTTCTAACCTGTTGCCT (site CGGAAGGCTAG)” the “recombinant barcode read abundance (log10)” value was 0.537. For “CGGAAGACTTGGGTTCTAACCTGTTGCCT (site CGGAAGTCTAG)”, the “recombinant barcode read abundance (log10)” value was 0.516. For “CGGAAGCCTTGGGTTCTAACCTGTTGCCT (site CGGAAGACTAG)”, the “recombinant barcode read abundance (log10)” value was 0.0744. For “CGGAAGCCTTGGGTTCTAACCTGTTGCCT (site CGGAAGCCTAG)”, the “recombinant barcode read abundance (log10)” value was 1.74. In the case of “CGGAAGCCTTGGGTTCTAACCTGTTGCCT (site CGGAAGGCTAG)”, the “recombinant barcode read abundance (log10)” value is reported as 0.0821. For “CGGAAGCCTTGGGTTCTAACCTGTTGCCT (site CGGAAGTCTAG)”, the “recombinant barcode read abundance (log10)” value was 0.818. In the case of “CGGAAGGCTTGGGTTCTAACCTGTTGCCT (site CGGAAGACTAG)”, the “recombinant barcode read abundance (log10)” value is reported as 0.036. For “CGGAAGGCTTGGGTTCTAACCTGTTGCCT (site CGGAAGCCTAG)”, the “recombinant barcode read abundance (log10)” value was 0.0918. For “CGGAAGGCTTGGGTTCTAACCTGTTGCCT (site CGGAAGGCTAG)”, the “recombinant barcode read abundance (log10)” value was 0.89. In the case of “CGGAAGGCTTGGGTTCTAACCTGTTGCCT (site CGGAAGTCTAG)”, the “recombinant barcode read abundance (log10)” value is reported as 0.401. For “CGGAATCCTTGGGTTCTAACCTGTTGCGT (site CGGAATCCTAA)”, the “recombinant barcode read abundance (log10)” value was 0.159. With “CGGAATCCTTGGGTTCTAACCTGTTGCGT (site CGGAATCCTAC)” the “recombinant barcode read abundance (log10)” value was 2.33. In the case of “CGGAATCCTTGGGTTCTAACCTGTTGCGT (site CGGAATCCTAG)”, the “recombinant barcode read abundance (log10)” value is reported as 0.345. For “CGGAATCCTTGGGTTCTAACCTGTTGCGT (site CGGAATCCTAT)”, the “recombinant barcode read abundance (log10)” value was 1.19. In the case of “CGGACGTCTTGGGTTCTAACCTGTTGCTG (site CGGACGTCTCA)”, the “recombinant barcode read abundance (log10)” value is reported as 1.69. In the case of “CGGACGTCTTGGGTTCTAACCTGTTGCTG (site CGGGCGTCTAA)”, the “recombinant barcode read abundance (log10)” value is reported as 0.0605. With “CGGACTGCTTGGGTTCTAACCTGTTGCCT (site ACCTGACCTCC)” the “recombinant barcode read abundance (log10)” value was 0.0853. In the case of “CGGACTGCTTGGGTTCTAACCTGTTGCCT (site CGGACTGCTAG)”, the “recombinant barcode read abundance (log10)” value is reported as 0.374. In the case of “CGGAGCCCTTGGGTTCTAACCTGTTGCCA (site CGGAACCCTCG)”, the “recombinant barcode read abundance (log10)” value is reported as 0.0889. For “CGGAGCCCTTGGGTTCTAACCTGTTGCCA (site CGGAGCCCTTG)”, the “recombinant barcode read abundance (log10)” value was 0.883. In the case of “CGGAGTCCTTGGGTTCTAACCTGTTGCTA (site CGGAGTCCTTA)”, the “recombinant barcode read abundance (log10)” value is reported as 0.774. With “CGGAGTCCTTGGGTTCTAACCTGTTGCTA (site CGGCGTCCTTA)” the “recombinant barcode read abundance (log10)” value was 0.113. In the case of “CGGAGTCCTTGGGTTCTAACCTGTTGCTA (site CGGGGTCCTTA)”, the “recombinant barcode read abundance (log10)” value is reported as 0.0775. For “CGGAGTCCTTGGGTTCTAACCTGTTGCTA (site CGGTGTCCTTA)”, the “recombinant barcode read abundance (log10)” value was 0.102. With “CGGCAGTCTTGGGTTCTAACCTGTTGCGT (site CGACAGTCTAC)” the “recombinant barcode read abundance (log10)” value was 2.34. For “CGGCAGTCTTGGGTTCTAACCTGTTGCGT (site CGGCAGTCTAC)”, the “recombinant barcode read abundance (log10)” value was 2.6. With “CGGCCCTCTTGGGTTCTAACCTGTTGCCT (site CAGCCCTCTAG)” the “recombinant barcode read abundance (log10)” value was 1.23. For “CGGCCCTCTTGGGTTCTAACCTGTTGCCT (site CCGCCCTCTAG)”, the “recombinant barcode read abundance (log10)” value was 0.29. For “CGGCCCTCTTGGGTTCTAACCTGTTGCCT (site CGGCCCTCTAG)”, the “recombinant barcode read abundance (log10)” value was 2.52. In the case of “CGGCCCTCTTGGGTTCTAACCTGTTGCCT (site CTGCCCTCTAG)”, the “recombinant barcode read abundance (log10)” value is reported as 0.185. For “CGGCCGACTTGGGTTCTAACCTGTTGCGG (site CGGCCGACTCC)”, the “recombinant barcode read abundance (log10)” value was 2.36. With “CGGCCGACTTGGGTTCTAACCTGTTGCGG (site CGGGCGCCTCC)” the “recombinant barcode read abundance (log10)” value was 0.184. In the case of “CGGCTATCTTGGGTTCTAACCTGTTGCCT (site CGGCTATCTAG)”, the “recombinant barcode read abundance (log10)” value is reported as 0.194. With “CGGCTATCTTGGGTTCTAACCTGTTGCCT (site TGGCTATCTAG)” the “recombinant barcode read abundance (log10)” value was 0.0495. In the case of “CGGCTCACTTGGGTTCTAACCTGTTGCCT (site CGGCTCACTAG)”, the “recombinant barcode read abundance (log10)” value is reported as 1.66. In the case of “CGGCTCACTTGGGTTCTAACCTGTTGCCT (site CGGCTGACTAG)”, the “recombinant barcode read abundance (log10)” value is reported as 0.123. In the case of “CGGGAAGCTTGGGTTCTAACCTGTTGCCT (site CGGGAAGCTAG)”, the “recombinant barcode read abundance (log10)” value is reported as 1.61. For “CGGGAAGCTTGGGTTCTAACCTGTTGCCT (site CGGGGAGCTCG)”, the “recombinant barcode read abundance (log10)” value was 0.287. With “CGGGACCCTTGGGTTCTAACCTGTTGCCT (site CGGGACCCTAG)” the “recombinant barcode read abundance (log10)” value was 1.26. For “CGGGACCCTTGGGTTCTAACCTGTTGCCT (site CGTGACCCTAA)”, the “recombinant barcode read abundance (log10)” value was 0.634. For “CGGGCAGCTTGGGTTCTAACCTGTTGCCT (site CGAGCAGCTAG)”, the “recombinant barcode read abundance (log10)” value was 0.0303. For “CGGGCAGCTTGGGTTCTAACCTGTTGCCT (site CGCGCAGCTAG)”, the “recombinant barcode read abundance (log10)” value was 0.0844.
